Patent US20250000855A1, “USE OF APOMORPHINE AS THERAPEUTIC AGENT FOR NECROPTOSIS-RELATED DISEASES” (INDUSTRY-ACADEMIC COOPERATION FOUNDATION, YONSEI UNIVERSITY, priority 2021, published 2025)

Key:
Format in all cases: cell-based, human
THP-1 cells = assay: Propidium iodide (PI) uptake / cell membrane integrity in TBZ-induced necroptosis
Method: (§1) Cells were pretreated with Z-VAD (invivoGen, tlrl-vad) and a compound for 1 hour, and necroptosis was induced with TNF-α (ATGen, TNF0501) and BV6 (Biovision, B1332-5) for the indicated time. The prepared cells were appropriately treated according to analysis (Z-VAD: carbobenzoxy-valyl-alanyl-aspartyl, TNF-α: tumor necrosis factor-α, BV6: 4,4′-(1,6-hexanediyl)bis[N-methyl-L-alanyl-(2S)-2-cyclohexylglycyl-L-prolyl-β-phenyl-L-phenylalaninamide)
Cells were plated in a flat, transparent-bottomed, black-walled 96-well plate, and subjected to 7-hour chemical treatment and necroptosis induction, and then PI (BD Biosciences, 556463) was added to a final concentration of 50 μg/ml. After incubation for 10 minutes under the original culture conditions, the cells were centrifuged at 400×g for 5 minutes. The emission wavelength at 617 nm following excitation at 530 nm was measured by real-time fluorescence monitoring on a Varioskan Flash 3001 plate reader. Data collection was performed at 37° C. (FIG. 1A).
As a first screening process, to investigate changes in cell membrane integrity by measuring PI uptake (Experimental Method 1-8), a compound in which the PI uptake had been reduced to less than 30% of the signal intensity upon TBZ treatment was selected.
After treating TBZ+APO-treated THP-1 cells with PI for 10 minutes, the PI taken up by the cells was measured on a microplate reader. […]

HMGB1 secretion = HMGB1 secretion into supernatant of TBZ-treated THP-1 cells, Western blotting; conditions: APO 1, 5, 20, 80, or 320 μM for 8 hours, vs TBZ only-treated group, FIG. 4
Method: (§2) Cells were treated with a drug candidate and then collected using centrifugation at 4° C. and 1,500×g for 5 minutes. A supernatant was centrifuged again at 4° C. and 1,500×g for 5 minutes to remove remaining debris, concentrated at 4° C. and 14,000×g for 30 minutes using Amicon ultra-0.5 centrifugal filter unit 10K (Millipore, UFC501096), and stored. The collected cells were lysed using 1× radioimmunoprecipitation assay (RIPA) buffer (GenDEPOT, R4100-010) containing a 1× protease inhibitor (GenDEPOT, P3100-001) and a phosphatase inhibitor (Thermo Fisher Scientific, 1862495). Subsequently, the cell lysate was centrifuged at 4° C. and 20,000×g for 30 minutes to remove debris. The extracted protein concentration was measured using a bicinchoninic acid (BCA) protein assay kit (Thermo Fisher Scientific, 23225). […]
To test whether secretion of HMGB1, a representative damage-associated molecular pattern, which is one of the characteristics of necroptosis, is inhibited by treating THP-1 cells with necroptosis induced by TBZ treatment with APO, after concentration-dependent treatment (1, 5, 20, 80, or 320 μM) with APO for 8 hours, all of the supernatant was concentrated, analyzed by SDS-PAGE, and investigated with an HMGB1 antibody (Experimental Method 1-6). […]

[1] = tested on: MLKL translocation in transfected THP-1 cells; assay: Flag-MLKL translocation to cell membrane, immunofluorescent staining, confocal microscopy; conditions: transfected THP-1 cells stimulated with compound and TBZ, FIG. 3
Method: A human monocyte cell line THP-1 and a human colon cancer cell line HT-29 were maintained in a 10% FBS-Roswell Park Memorial Institute (RPMI) 1640 medium supplemented with 2 mM L-glutamine, 100 U/ml penicillin, and 100 μg/ml streptomycin at 37° C. under a 5% CO2 condition. The THP-1 cells were differentiated into macrophages in an RPMI 1640 medium containing 500 nM Phorbol 12-myristate 13-acetate (PMA) for 3 hours. Human mixed lineage kinase domain-like protein (MLKL)-flag plasmid (Sino Biological, HG12810-CF) transfection was performed using the electroporation system (Invitrogen) of MicroPorator-mini (Digital Bio).
Cells were seeded on cell culture-treated glass chamber slides. The cells were pretreated with Z-VAD, BV6, and the indicated compound for 1 hour, and then treated with TNF-α and BV6 overnight. Subsequently, the cells were washed with phosphate-buffered saline (PBS) and fixed in 4% paraformaldehyde for 10 minutes. Before incubation for 10 minutes in 0.25% Triton X-100 in PBS, the cells were washed three more times with PBS. The cells were blocked with 5% bovine serum albumin (BSA) in PBS for 30 minutes and stained using an anti-Flag (Sigma, F7425-2MG) antibody. The nuclei were stained with DAPI (Invitrogen, 00-4959-52). Images were captured using a confocal microscope (Olympus, FV1000). […]

MLKL phosphorylation = assay: Western blotting for MLKL phosphorylation in TBZ+APO-treated cells; conditions: TBZ+APO-treated THP-1 cells, FIG. 1B
Method: as §1, §2

## CN1CCc2cccc3c2[C@H]1Cc1ccc(O)c(O)c1-3 [APO, apomorphine]
THP-1 cells; Homo sapiens, THP-1, concentration-dependent APO treatment, FIG. 1D, read-out: IC50, change in cell membrane integrity
  IC50: 5.7 µM
THP-1 cells; THP-1 cells treated with TBZ (TNF-α+BV6+Z-VAD)+APO, PI 10 minutes, FIG. 1A
  PI uptake rate: effectively reduced
HMGB1 secretion
  amount of HMGB1 secreted into the supernatant: decreased
[1]
  distribution of Flag-MLKL signals: mostly distributed in the cytoplasm
MLKL phosphorylation
  MLKL phosphorylation: did not inhibit
